From paper PMC9515143, “Phosphorylation of Jhd2 by the Ras-cAMP-PKA(Tpk2) pathway regulates histone modifications and autophagy” (Nature Communications, 2022)

Key:
H3K4me1 and H3K4me2 = assay: Western blot of H3K4me1 and H3K4me2 in yeast cells treated with glucose; format: cell-based, budding yeast (Saccharomyces cerevisiae); conditions: WT cells, different glucose concentrations, 0.5 hr
Description: To examine the effect of glucose on histone modifications, we grew yeast cells in 2% glucose-containing medium (YPD) until log phase. Cells were collected and then grown in the medium containing different concentrations of glucose for 0.5 hr.
(§1) To examine the effect of glucose on histone modifications, yeast cells were grown in 2% glucose-containing YPD (Yeast Extract Peptone Dextrose) medium until OD600 of 0.7–1.0. Cells were then collected, washed and resuspended in YP medium for 3 hr followed by treatment with different concentrations of glucose for 0.5 hr. For 1NM-PP1 (MCE, HY-13804) treatment, cells were grown in 2% YPD until OD600 of 0.7–1.0. Cells were then treated with 25 μM 1NM-PP1 for 0.5 hr. For FBP and pyruvate treatment, cells were pre-treated with Zymolase (Mpbio, 08320921) to increase the permeability. In brief, cells were grown in YPD medium until OD600 of 0.7–1.0, centrifuged and resuspended in 1 ml SB buffer (100 mM Sorbitol, 20 mM Tris pH 7.4). 10 μl Zymolase was then added and incubated at 30 °C for 15 min. The spheroplasts were washed and cultured in YPD medium containing different concentrations of FBP and pyruvate for 3 hr.
Cells were grown in 5 ml YPD or selective medium until OD600 of 0.7–1.0. […] The protein bands were visualized using the ECL Chemiluminescence Detection Kit (Bio-Rad, 170–5061) and quantified with Image J software (v.1.8.0).

histone modifications = assay: Effect of glucose on histone modifications in WT and ubp8∆ ubp10∆ mutant (Western blot); format: cell-based, budding yeast (Saccharomyces cerevisiae); conditions: for relative histone modification level (Figure S1c): 0.5 hr
Text: To identify the signaling pathway that mediates glucose-induced H3K4me3, we first examined the effect of glucose on histone modifications that regulate Set1-catalyzed H3K4me3, including H2BK123 monoubiquitination (H2Bub) and H3R2 asymmetric dimethylation (H3R2me2a)[30]–[32]. […] We then determine whether glucose increases H3K4me3 by inducing H2Bub. As there is no H3K4me3 in the deletion mutants of RAD6 and BRE1, which catalyze H2Bub[30],[31], it is impossible to determine the effect of glucose on H3K4me3 in rad6Δ and bre1Δ mutants. We thus examined the effect of glucose on H3K4me3 in the deletion mutant of UBP8 and UBP10, which encode H2B ubiquitin proteases[33],[34]. […] We also examined the effect of glucose on the activity of Set1-containing complex (COMPASS).
as §1
Cells were grown in 5 ml YPD or selective medium until OD600 of 0.7–1.0. Cells were harvested and lysed in alkaline lysis buffer (2 M NaOH, 8% 2-mercaptoethanol). After centrifugation, the protein pellet was resuspended in 150 μl 2×SDS-sample buffer. Protein samples were separated by 8–15% SDS-PAGE and transferred to PVDF membrane. The blots were probed with primary antibodies followed by incubation with horseradish peroxidase-labelled IgG secondary antibodies. The protein bands were visualized using the ECL Chemiluminescence Detection Kit (Bio-Rad, 170–5061) and quantified with Image J software (v.1.8.0).
Supplementary Fi g . 1 Glu cose induces H3K4me 3 via the Ras-cAMP-PKA(T p k 2) pathway. […]
Cells were th en tr eat ed with YP medium supplement ed with differen t concentrations of glucos e for 0.5 hr. C ells were h ar vested an d the ex tract ed histones w er e anal yz ed by Western blots with indicat ed ant ibodies. To d et ect H2B monoubiquitination, H2B-F LAG strain w as used and d et ect ed with anti -F LAG ant ibody. Th e upper bands ar e monoubiquitinat ed H2B-F LAG. c E ff e c t of gl ucose on histone modifications in WT and ubp8∆ ubp10∆ mutant. WT and ubp8∆ ubp10∆ mut ant w er e gro wn in YPD medium unti l OD600 of […]
For Supplem ent ar y Fi g. 1b, e-g, i-k, d at a r ep res ent means ± SEM; n=3 i ndependent ex perim ents. For Supplem entar y Fi g. 1c, d ata represent means ± SEM; n=4 independent ex periments. Tw o -sided t-tests were used for statistical analysis.

## OC[C@H]1OC(O)[C@H](O)[C@@H](O)[C@@H]1O (stereo partly drawn) [glucose]
H3K4me1 and H3K4me2
  H3K4me1 and H3K4me2 level: had no effect on H3K4me1 and H3K4me2
Histone modifications; WT, 0.5% glucose, relative to WT 0.05% = 1, replicate 1
  relative histone modification level (Figure S1c): 1.436
Histone modifications; WT, 0.5% glucose, relative to WT 0.05% = 1, replicate 2
  relative histone modification level (Figure S1c): 1.642
Histone modifications; WT, 0.5% glucose, relative to WT 0.05% = 1, replicate 3
  relative histone modification level (Figure S1c): 1.498
Histone modifications; WT, 0.5% glucose, relative to WT 0.05% = 1, replicate 4
  relative histone modification level (Figure S1c): 1.3798
Histone modifications; WT, 2% glucose, relative to WT 0.05% = 1, replicate 1
  relative histone modification level (Figure S1c): 1.805
Histone modifications; WT, 2% glucose, relative to WT 0.05% = 1, replicate 2
  relative histone modification level (Figure S1c): 2.101
Histone modifications; WT, 2% glucose, relative to WT 0.05% = 1, replicate 3
  relative histone modification level (Figure S1c): 2.2062
Histone modifications; WT, 2% glucose, relative to WT 0.05% = 1, replicate 4
  relative histone modification level (Figure S1c): 1.619
Histone modifications; WT, 4% glucose, relative to WT 0.05% = 1, replicate 1
  relative histone modification level (Figure S1c): 1.732
Histone modifications; WT, 4% glucose, relative to WT 0.05% = 1, replicate 2
  relative histone modification level (Figure S1c): 2.2477
Histone modifications; WT, 4% glucose, relative to WT 0.05% = 1, replicate 3
  relative histone modification level (Figure S1c): 2.452
Histone modifications; WT, 4% glucose, relative to WT 0.05% = 1, replicate 4
  relative histone modification level (Figure S1c): 2.7285
Histone modifications; ubp8Δ ubp10Δ, glucose 0.5 hr, Western blot
  H3K4me3 level in ubp8Δ ubp10Δ mutant: H3K4me3 was still increased by glucose
Histone modifications; ubp8Δubp10Δ, 0.05% glucose, relative to WT 0.05% = 1, replicate 1
  relative histone modification level (Figure S1c): 1.962
Histone modifications; ubp8Δubp10Δ, 0.05% glucose, relative to WT 0.05% = 1, replicate 2
  relative histone modification level (Figure S1c): 2.0252
Histone modifications; ubp8Δubp10Δ, 0.05% glucose, relative to WT 0.05% = 1, replicate 3
  relative histone modification level (Figure S1c): 1.753
Histone modifications; ubp8Δubp10Δ, 0.05% glucose, relative to WT 0.05% = 1, replicate 4
  relative histone modification level (Figure S1c): 1.8754
Histone modifications; ubp8Δubp10Δ, 0.5% glucose, relative to WT 0.05% = 1, replicate 1
  relative histone modification level (Figure S1c): 2.076
Histone modifications; ubp8Δubp10Δ, 0.5% glucose, relative to WT 0.05% = 1, replicate 2
  relative histone modification level (Figure S1c): 2.387
Histone modifications; ubp8Δubp10Δ, 0.5% glucose, relative to WT 0.05% = 1, replicate 3
  relative histone modification level (Figure S1c): 2.436
Histone modifications; ubp8Δubp10Δ, 0.5% glucose, relative to WT 0.05% = 1, replicate 4
  relative histone modification level (Figure S1c): 1.826
Histone modifications; ubp8Δubp10Δ, 2% glucose, relative to WT 0.05% = 1, replicate 1
  relative histone modification level (Figure S1c): 2.343
Histone modifications; ubp8Δubp10Δ, 2% glucose, relative to WT 0.05% = 1, replicate 2
  relative histone modification level (Figure S1c): 2.512
Histone modifications; ubp8Δubp10Δ, 2% glucose, relative to WT 0.05% = 1, replicate 3
  relative histone modification level (Figure S1c): 2.749
Histone modifications; ubp8Δubp10Δ, 2% glucose, relative to WT 0.05% = 1, replicate 4
  relative histone modification level (Figure S1c): 2.579
Histone modifications; ubp8Δubp10Δ, 4% glucose, relative to WT 0.05% = 1, replicate 1
  relative histone modification level (Figure S1c): 3.366
Histone modifications; ubp8Δubp10Δ, 4% glucose, relative to WT 0.05% = 1, replicate 2
  relative histone modification level (Figure S1c): 3.228
Histone modifications; ubp8Δubp10Δ, 4% glucose, relative to WT 0.05% = 1, replicate 3
  relative histone modification level (Figure S1c): 2.75
Histone modifications; ubp8Δubp10Δ, 4% glucose, relative to WT 0.05% = 1, replicate 4
  relative histone modification level (Figure S1c): 2.722
